Data from patent publication US10464890B2, “PGAM1 inhibitors and methods related thereto” (Emory University, priority 2011, dated 2019).
“Also recorded” adds a separate entry of the source.

How the values were obtained:
PGAM1 = PGAM1 (Homo sapiens, UniProt P18669); experiment: Thermal melt shift assay, PGAM1; assay type: binding; conditions: increasing concentrations, […] to 80 μM
Procedure: In brief, thermal shift assay of compound-protein interaction was performed in 384-well PCR plates with various compound concentrations and 200 μg/ml protein in a buffer solution (20 mM Tris-HCl, 100 mM NaCl, pH 7.4). SYPRO orange was used as a dye to monitor the fluorescence change at 610 nm. Small molecules were dissolved in DMSO and added to protein solution. Final DMSO concentration of solution is 1%. Dissociation constants (Kds) for protein-ligand interaction were calculated using the method as described.
The fluorescence intensity data were fitted to Eq. (1) to obtain ΔHu, ΔCpu, and Tm by nonlinear regression using the program Prism:
The thermal unfolding parameters for 6PGD and PGAM1 alone were determined from 4 control wells, each containing 0.2 mg/mL protein.

[1] = target: T1, PGAM1 in leukemia KG1a cells (Homo sapiens, UniProt P18669); experiment: PGAM1 inhibition in leukemia KG1a cells; assay type: cell-based; conditions: leukemia KG1a cells (2h); compared to alizarin, alizarin Red S, PGMI-001A
T1 construct: endogenous in cells; host or cells: KG1a leukemia cells; H1299 lung cancer cells

H1299 cells [2] = experiment: Intracellular ATP assay; assay type: cell-based, human
Procedure: Cellular lactate production was measured under normoxia with a fluorescence-based lactate assay kit (MBL). Phenol red-free RPMI medium without FBS was added to a 6 well-plate of subconfluent cells, and was incubated for 1 h at 37° C. After incubation, 1 ml of media from each well was assessed using the lactate assay kit. Cell numbers were counted by a microscope (×40). Oxygen consumption rates were measured with a Clark type electrode equipped with 782 oxygen meter (Strathkelvin Instruments). 1×10^7 cells were resuspended in RPMI 1640 medium with 10% FBS and placed into a water-jacked chamber RC300 (Strathkelvin Instruments) and recording was started immediately. Intracellular ATP concentration was measured by an ATP bioluminescent somatic cell assay kit (Sigma). 1×10^6 cells were trypsinized and resuspended in ultrapure water. Luminescence was measured with spectrofluorometer (SPECTRA Max Gemini; […]) immediately after the addition of ATP enzyme mix to cell suspension.

H1299 cells [3] = experiment: Cell proliferation assay, H1299; assay type: cell-based, human
Procedure: (§1) For leukemia cell proliferation assay, 10×10^4 cells were seeded in non-tissue culture coated 6-well plate and incubated at 37° C. for indicated times. Cell numbers were counted by trypan blue exclusion under a microscope (×40) at indicated times and the percentage of cell proliferation was determined by comparing PGAM1 knockdown cells to pLKO.1 vector expressing cells. […] Cell viability was determined by counting drug-treated cells compared to DMSO-treated control cells with trypan blue exclusion under a microscope (×40) and by using CellTiter96Aqueous One solution proliferation kit (Promega). For adherent cell proliferation assay such as H1299 and MDA-MB231 cells, 5×10^4 cells were seeded in 6-well plate 24 h before the assay starts and were cultured at 37° C. 24 h after seeding, cells were treated with 5 μM Methyl-2PG and incubated at 37° C. for indicated times. Cell proliferation was determined by the increase in cell number indicated times after the treatment starts compared to that at the treatment starts for each cell line (T=0). Cell numbers were counted by trypan blue exclusion under a microscope (×40). For adherent cell viability assay with trypan blue exclusion, 5×10^4 cells were seeded in 6-well plate 24 h before the assay starts and were cultured at 37° C. […] Cell viability was determined by counting drug-treated cells compared to DMSO-treated control cells with trypan blue exclusion under a microscope (×40). For MTT cell viability assay of adherent cells, 5×10^3 cells were seeded in 96-well plate 24 h before the assay starts and were cultured at 37° C. […] Cell viability was determined by using CellTiter96Aqueous One solution proliferation kit (Promega).

[4] = test system: human dermal fibroblasts (HDF), human foreskin fibroblasts (HFF), HaCaT keratinocyte cells, melanocyte PIG1 cells; experiment: Cell proliferation of normal human cells; assay type: cell-based
Procedure: as §1, with “(×40).” for “(×40). For adherent cell viability assay with trypan blue exclusion, 5×10^4 cells were seeded in 6-well plate 24 h before the assay starts and were cultured at 37° C.”, “(×40).” for “(×40). For MTT cell viability assay of adherent cells, 5×10^3 cells were seeded in 96-well plate 24 h before the assay starts and were cultured at 37° C.”

H1299 cells xenograft = experiment: H1299 xenograft in nude mice; assay type: in vivo
[5] = Toxicity studies in nude mice; assay type: in vivo
Procedure: Peripheral blood samples were collected and applied for analysis of hematological properties. The vital organs were collected for histo-pathological analysis. […] Images were analyzed and captured using ImageScope software (Aperio Technologies Inc.) without any additional or subsequent image processing (high power images are 20×; low power images are either 4.0×, 4.2×, or 4.4×). Scale bars are indicated.
An in vivo drug treatment experiment was performed. […] Xenograft experiments were performed by injecting H1299 cells to nude mice.

[6] = test system: peripheral blood mononucleocytes and bone marrow CD34+ cells from healthy donors; experiment: Cells from healthy human donors; assay type: cell-based
Source text: Approval of use of human specimens was given by the Institutional Review Board of Emory University School of Medicine. All clinical samples were obtained with informed consent with approval by the Emory University Institutional Review Board. Clinical information for the patients was obtained from the pathological files at Emory University Hospital under the guidelines and with approval from the Institutional Review Board of Emory University School of Medicine and according to the Health Insurance Portability and Accountability Act. Only samples from patients that were not previously treated with chemotherapy or radiation therapy were used. Mononuclear cells (MNCs) were isolated from peripheral blood and bone marrow samples from human leukemia patients or peripheral blood samples from healthy donors using lymphocyte separation medium (Cellgro).
Only samples from patients that were not previously treated with chemotherapy or radiation therapy were used. Mononuclear cells (MNCs) were isolated from peripheral blood and bone marrow samples from human leukemia patients or peripheral blood samples from healthy donors using lymphocyte separation medium (Cellgro).

[7] = test system: H1299 cells with stable knockdown of PGAM1; experiment: 14C-serine synthesis assay; assay type: cell-based, human; conditions: methyl-2-PG
Procedure: Serine synthesis flux from ^14C glucose was measured as described previously (Parry, 1957) with modification. Sub-confluent cells seeded on a 6 cm dish were incubated in complete medium spiked with 40 μCi/ml of D-[U-^14C]-glucose overnight. The incubated cells were lysed with hypotonic lysis buffer (20 mM HEPES (pH 7.0), 5 mM KCl, 1 mM MgCl2, 5 mM DTT, and protease inhibitor cocktail), and the cell lysates were spun down by centrifugation to remove cell debris. The supernatant containing 100 μg of total protein was spotted onto Whatman 3MM paper. One-dimensional chromatogram was run in water saturated phenol, and two-dimentional chromatogram was run in 1-butanol:acetic acid:water solution at the ratio of 100:22:50. L-serine (Sigma) was used as a standard. L-serine dissolved in hypotonic lysis buffer was spotted onto another paper, which was run under the same conditions in parallel with the cell lysate sample. Spots of amino acids were developed by ninhydrin reaction. The spot corresponding to serine was identified based on R^f values of L-serine standard, cut out from the paper, and directly subjected to scintillation counting.

[8] = 100 mg/kg/day i.p. for 21 days from 6 days post-injection, vs vehicle

T1 sequence (P18669 whole entry): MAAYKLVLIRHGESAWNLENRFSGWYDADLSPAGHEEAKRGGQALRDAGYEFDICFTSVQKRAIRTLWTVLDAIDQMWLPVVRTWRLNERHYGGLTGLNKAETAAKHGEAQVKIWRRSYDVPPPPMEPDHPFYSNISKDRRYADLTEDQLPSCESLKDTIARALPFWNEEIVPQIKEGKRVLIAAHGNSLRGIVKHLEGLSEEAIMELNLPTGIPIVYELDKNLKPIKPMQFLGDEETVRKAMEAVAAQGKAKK
Sequence of PGAM1 (P18669 whole entry): as above

O=C1c2ccccc2C(=O)c2c1cc(S(=O)(=O)Nc1ccc(C(F)(F)F)cc1)c(O)c2O [PGMI-004A, N-(4-trifluoromethyl)-penyl-3,4-dihydroxy-9,10-dioxo-2-anthracenesulfonamide]
PGAM1 melting temperature (Tm) (PGAM1): raises PGAM1 melting temperature (Tm) in a dose-dependent manner | potency of PGAM1 inhibition in cells [1]: more potent activity; also recorded: enhanced potency to inhibit PGAM1 | intracellular ATP levels (H1299 cells [2]; H1299 cells treated with PGMI-004A): no significant effect on intracellular ATP levels | cell proliferation (H1299 cells [3]; H1299 cells): reduced | cell proliferation / non-specific toxicity in normal cells [4]: does not affect cell proliferation; also recorded: minimal non-specific toxicity | tumor growth (H1299 cells xenograft; [8]): significantly decreased | tumor size (H1299 cells xenograft; [8]): significantly decreased | PGAM1 enzyme activity in resected tumors (H1299 cells xenograft; xenograft nude mice treated with PGMI-004A): effectively inhibits PGAM1 enzyme activity | body weight, complete blood counts (CBC) or hematopoietic properties ([5]; 100 mg/kg/day for 7 days): did not result in significant alteration | histopathological analyses (kidney, lung, liver, spleen) ([5]; 100 mg/kg/day intraperitoneally for 7 days, vs vehicle): did not reveal significant differences; also recorded: no notable differences | tolerability ([5]; 100 mg/kg/day intraperitoneally, chronic injection for 4 weeks): well-tolerated | cell viability of CD34+ cells isolated from bone marrow samples ([6]; four healthy donors): did not affect cell viability | cell viability of mononucleocytes in peripheral blood samples ([6]; two healthy human donors, 120 h): no toxicity; also recorded: did not affect cell viability

COC(=O)[C@@H](CO)OP(=O)(O)O [methyl-2-PG, methyl ester of D(+)-2-phosphoglyceric acid, reference compound]
intracellular ATP levels (H1299 cells [2]; H1299 cells with stable knockdown of PGAM1, methyl-2-PG): no significant effect on intracellular ATP levels | cell proliferation (H1299 cells [3]; H1299 PGAM1 knockdown cells, methyl-2-PG): partially restores the reduced cell proliferation | serine biosynthesis [7]: rescues the phenotype
